According to ChEMBL document CHEMBL5724558, “Image-based profiling of drug vulnerabilities in CRC organoids” (2024):
Where “and” joins values, the source holds several entries; their conditions need not be identical. Identical values can stand only once.

Legend:
Format in all cases: functional, Homo sapiens
Parameters in all cases: dose or concentration left out as unconfirmed
[1] = tested on: Colon cancer organoid; assay: (§1) Image-based profiling of donated chemical probes and chemogenomic kinase set in O21 CRC organoid. Image analysis is performed on the sum area metric, and the data were normalized to the DMSO control. After imaging the organoid viability is measured using the OneGloEX Luciferase Assay System. The normalized viability data and sum area are reported.
[2] = tested on: Colon cancer organoid; assay: as §1, with “O06” for “O21”
[3] = tested on: Colon cancer organoid; assay: as §1, with “O09” for “O21”

SMILES	Cell Viability ([1]; Replication number 1)	Cell Viability ([1]; Replication number 2)	Cell Viability ([2]; Replication number 1)	Cell Viability ([2]; Replication number 2)	Cell Viability ([3]; Replication number 1)	Cell Viability ([3]; Replication number 2)
Cc1sc2c(c1C)C(c1ccc(Cl)cc1)=N[C@H](CC(=O)OC(C)(C)C)c1nnc(C)n1-2	103.643% and 116.982%	106.671% and 110.621%	124.069% and 114.282%	126.933% and 90.5736%	84.3348% and 91.1128%	66.0131% and 88.6601%
Cc1cc2c(-c3ccco3)cnc(N[C@@H]3CCN(C)C[C@H]3C(=O)NC3CCCCC3)c2[nH]c1=O [GSK789]	106.004% and 111.859%	101.857% and 104.521%	45.8732% and 77.9757%	46.7874% and 82.8928%	34.6914% and 67.3378%	49.9263% and 76.5266%
CN1CCN(C(=O)C(C)(C)c2ccc(C(=O)Nc3cn4cc(-c5cc(C(C)(C)C)cc(C(C)(C)C)c5)ccc4n3)cc2)CC1 [T3-CLK-N]	88.9475% and 97.2186%	93.8303% and 107.653%	75.6351% and 77.2834%	96.9336% and 98.0752%	89.0201% and 93.1776%	119.23% and 117.123%
Cc1cc(-n2nc(Cc3cc(F)cc(C(F)(F)F)c3)nc2C)ccc1C(N)=O [TP-024]	86.6903% and 89.6507%	83.205% and 88.2653%	119.634% and 111.944%	93.5275% and 86.4673%	194.223% and 140.244%	90.9356% and 75.9401%
CCOC(=O)CCNc1cc(N2CCc3ccccc3CC2)nc(-c2ccccn2)n1	97.5264% and 129.915%	84.038% and 100.955%	148.439% and 134.336%	153.418% and 113.038%	78.8625% and 87.8671%	139.531% and 105.195%
COc1cc(-c2cn([C@H]3CCc4ccccc4N(CC(F)(F)F)C3=O)nn2)ccc1-n1ccc(C)n1	95.5395% and 92.5614%	105.607% and 89.2857%	93.8708% and 97.1897%	92.3722% and 127.214%	31.4153% and 64.0297%	67.1931% and 101.059%
COc1cc(N(C)c2ccnc3ccc(C(F)(F)F)cc23)cc(OC)c1OC	98.7422% and 93.5085%	96.4741% and 84.441%	100.25% and 97.181%	103.599% and 93.0279%	149.162% and 94.0382%	152.627% and 99.9775%
CN(C)[C@H]1CCN(c2cc(-c3ccccc3)nc3ccnn23)C1 [(S)-ZINC-3573]	105.743% and 100.4%	101.814% and 109.109%	125.32% and 118.543%	115.524% and 96.3479%	74.4521% and 108.791%	105.794% and 104.481%
CC(C)C(=O)Nc1n[nH]c2cc(-c3cccc(NS(=O)(=O)C4CC4)c3)ccc12	108.143% and 100.309%	99.3973% and 100.309%	98.7656% and 120.438%	86.9624% and 76.1389%	171.396% and 120.765%	122.795% and 96.2655%
COCc1nc2cnc3cc(-c4c(C)noc4C)c(OC[C@H]4CCNC4)cc3c2n1[C@H](C)c1ccccc1 [GSK778]	115.801% and 111.859%	99.2147% and 116.757%	42.5585% and 78.7045%	45.6544% and 89.6204%	36.9836% and 58.5219%	32.5027% and 49.1673%
OCCn1cc(-c2cnc3nnn(Cc4ccc5ncccc5c4)c3n2)cn1 [PF-04217903]	106.76% and 119.861%	108.21% and 119.755%	92.042% and 100.376%	104.418% and 102.005%	126.877% and 95.995%	92.9183% and 79.3656%
Cc1cnc(-c2cc(Cl)ccc2F)cc1-n1c(=O)n(CC(N)=O)c2ccccc21 [Al11]	94.0699% and 103.674%	91.9117% and 97.8926%	119.898% and 115.628%	113.033% and 103.316%	78.4595% and 96.5987%	101.459% and 100.317%
CC(=O)c1c(NS(C)(=O)=O)c2cc(-c3ccc(Cl)cc3)c(-c3ccc(Cl)cc3Cl)nc2n(C)c1=O [MRL-CB1-NC]	126.549% and 100.129%	108.062% and 94.898%	116.774% and 92.5059%	73.5946% and 87.6518%	160.352% and 102.495%	132.682% and 100.183%
